In patent US4175130A, “Oxazole- and thiazole-alkanoic acid compounds” (Yoshitomi Pharmaceutical Industries, Ltd., priority 1977, dated 1979):

Key:
[1] = test system: Cholesterol and triglyceride in the serum; assay: Hypolipidemic action: male rats with normolipidemia (serum cholesterol and triglyceride, oral, 5 days); type: in vivo; conditions: Wistar rats, 100 mg/kg/day oral, control = 100%, * p<0.05 (all values starred)
Description: (1) Male rats with normolipidemia:
Male Wistar rats (170-250 g) were used. Each group was composed of 6 animals. The test compound was orally given by a gastric tube for 5 days. Cholesterol and triglyceride in the serum were determined by the standard methods using antoanalyzer (Technicon Inc.). The levels in the control group were considered as 100% and the reduction rate (%) in the test group was calculated.

[2] = Liver weight / hepatomegaly; type: in vivo, male Wistar rats; conditions: for Increase (%) Liver Weight: Wistar rats, 100 mg/kg/day oral, 5 days, * p<0.05 (only clofibrate starred)
serum cholesterol = assay: Hypolipidemic action: male mice with hyperlipidemia (high cholesterol diet); type: in vivo, male dd-strain mice; conditions: dd mice, 100 mg/kg/day oral, 5 days, * p<0.05 (A, B, C, D starred; clofibrate not)
Description: (2) Male mice with hyperlipidemia:
Male dd-strain mice (20-25 g) were used. Each group was composed of 10 animals. Mice were fed a high cholesterol diet (1% cholesterol, 0.2% sodium cholate, 5% olive oil and 93.8% commercial diet) for 5 days. The test compound was orally administered to the animals once a day throughout the experimental period. The serum cholesterol was determined by the procedure described in Experiment (1).

Acute Toxicity (oral) = conditions: mouse, in vivo, mice, p.o., mortality within 7 days
Description: Male dd-strain mice (20-25 g) were used. Each group was composed of 10 animals. The test compound was orally administered to the animals. The LD50 (mg/kg) was calculated from the mortality within 7 days after administration of the test compound.

[3] = Serum Levels in Rhesus Monkey; type: in vivo, rhesus monkeys; conditions: 10 mg/kg oral; for Cmax: read-out: Peak level (serum)
Description: Serum Levels in Rhesus Monkey
The test compound was orally administered to rhesus monkeys at the dose of 10 mg/kg. Blood was collected at 0, 2, 4, 6, 8, 24, 30 and 48 hours after the administration of the test compound. After centrifugation, serum was stored at -20° C. until taken for analysis. Serum drug was extracted with ethyl acetate and fluorometrically determined.
(Wavelengths for fluorometric determination:
excitation: 294 nm, emission: 365 nm with compound A;
excitation: 305 nm, emission: 370 nm with compound D)

O.O=C(O)Cc1nc(-c2ccc(Cl)cc2)oc1Oc1ccccc1 [B, 2-p-Chlorophenyl-5-phenoxy-4-oxazoleacetic acid monohydrate]
Decrease (%) Cholesterol [1]: 37%
Decrease (%) Triglyceride [1]: 33%
Increase (%) Liver Weight [2]: -6%
Decrease (%) of Serum Cholesterol (serum cholesterol): 38%

CCOC(=O)Cc1nc(-c2ccc(Cl)cc2)sc1Sc1ccccc1 [C, Ethyl 2-p-chlorophenyl-5-phenylthio-4-thiazoleacetate]
Decrease (%) Cholesterol [1]: 40%
Decrease (%) Triglyceride [1]: 29%
Increase (%) Liver Weight [2]: 15%
Decrease (%) of Serum Cholesterol (serum cholesterol): 34%

CCOC(=O)C(C)(C)Oc1ccc(Cl)cc1 [Clofibrate, reference compound]
LD50 at 168 h (Acute Toxicity (oral)): 1500 mg/kg
Decrease (%) Cholesterol [1]: 32%
Decrease (%) Triglyceride [1]: 34%
liver enlargement ([2]; 100 mg/kg): significant liver enlargement
Increase (%) Liver Weight [2]: 17%
Decrease (%) of Serum Cholesterol (serum cholesterol): 16%

CCOC(=O)Cc1nc(-c2ccc(Cl)cc2)oc1Oc1ccc(Cl)cc1 [Compound A, Ethyl 2-p-chlorophenyl-5-p-chlorophenoxy-4-oxazoleacetate]
LD50 at 168 h (Acute Toxicity (oral)): > 6000 mg/kg
Decrease (%) Cholesterol [1]: 40%
Decrease (%) Triglyceride [1]: 33%
hepatomegaly ([2]; 500 mg/kg): no hepatomegaly
Increase (%) Liver Weight [2]: 5%
Decrease (%) of Serum Cholesterol (serum cholesterol): 37%
half-life [3]: 30 h
Cmax [3]: 30000 ng/mL

CCOC(=O)Cc1nc(-c2ccc(Cl)cc2)oc1OCC [D, Ethyl 2-p-chlorophenyl-5-ethoxy-4-oxazoleacetate, reference compound]
LD50 at 168 h (Acute Toxicity (oral)): 3700 mg/kg
Decrease (%) Cholesterol [1]: 32%
Decrease (%) Triglyceride [1]: 33%
Increase (%) Liver Weight [2]: 5%
Decrease (%) of Serum Cholesterol (serum cholesterol): 37%
half-life [3]: 3 h
Cmax [3]: 15000 ng/mL
